T1: Chs1 (chitin synthase 1) (Saccharomyces cerevisiae, UniProt P08004)
T1 construct: Chs1 (1131 residues) with C-terminal triple-FLAG; N-terminal ~374 residues largely disordered; homodimer
T1 sequence (P08004 1-1131): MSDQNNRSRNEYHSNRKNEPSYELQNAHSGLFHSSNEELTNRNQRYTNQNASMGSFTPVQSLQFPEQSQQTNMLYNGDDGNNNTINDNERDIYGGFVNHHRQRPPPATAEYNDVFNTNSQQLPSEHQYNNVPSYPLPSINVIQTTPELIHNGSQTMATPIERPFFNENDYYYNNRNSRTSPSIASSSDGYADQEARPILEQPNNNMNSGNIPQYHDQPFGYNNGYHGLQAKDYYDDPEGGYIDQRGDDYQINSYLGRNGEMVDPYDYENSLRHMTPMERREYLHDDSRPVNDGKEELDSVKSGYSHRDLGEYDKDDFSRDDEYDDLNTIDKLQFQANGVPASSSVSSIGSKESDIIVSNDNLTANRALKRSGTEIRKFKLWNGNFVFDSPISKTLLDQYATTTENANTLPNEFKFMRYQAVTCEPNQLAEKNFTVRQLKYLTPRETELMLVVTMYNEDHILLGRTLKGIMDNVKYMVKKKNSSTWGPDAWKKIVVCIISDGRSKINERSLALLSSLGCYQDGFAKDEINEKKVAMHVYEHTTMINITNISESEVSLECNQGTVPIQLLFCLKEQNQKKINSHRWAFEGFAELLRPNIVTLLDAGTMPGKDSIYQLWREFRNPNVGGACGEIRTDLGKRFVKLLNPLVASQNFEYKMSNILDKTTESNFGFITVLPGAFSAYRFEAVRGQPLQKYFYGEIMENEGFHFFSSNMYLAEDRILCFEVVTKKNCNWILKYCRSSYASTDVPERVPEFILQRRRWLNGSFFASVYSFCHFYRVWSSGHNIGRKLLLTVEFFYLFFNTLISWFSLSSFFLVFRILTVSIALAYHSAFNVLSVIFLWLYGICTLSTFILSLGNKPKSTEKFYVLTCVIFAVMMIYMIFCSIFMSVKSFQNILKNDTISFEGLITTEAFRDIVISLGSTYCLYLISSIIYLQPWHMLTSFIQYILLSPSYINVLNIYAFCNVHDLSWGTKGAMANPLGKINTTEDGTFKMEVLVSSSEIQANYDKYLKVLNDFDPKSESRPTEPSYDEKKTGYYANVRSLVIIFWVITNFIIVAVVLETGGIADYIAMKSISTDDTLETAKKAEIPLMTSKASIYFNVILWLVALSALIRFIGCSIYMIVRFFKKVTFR


How the values were obtained:
Chs1 (chitin synthase 1) = molecular target: T1, Chs1 (chitin synthase 1); experiment: cryo-EM structure at […] Å with UDP-GlcNAc (also with UDP, 8K3U); format: binding
[1] = molecular target: the molecule itself; experiment: cryo-EM structure; single-particle cryo-EM of purified Chs1 (~3 mg/mL) in LMNG/GDN/CHS, alone or with 5 mM UDP-GlcNAc, GlcNAc, UDP, Nikkomycin Z or Polyoxin B on ice; maps refined with C2 symmetry

| Molecule | cryo-EM structure at 2.9 Å with UDP-GlcNAc (also with UDP, 8K3U) (Chs1 (chitin synthase 1)) | stoichiometry N [1] |
| --- | --- | --- |
| CC(=O)N[C@H]1C(O)O[C@H](CO)[C@@H](O)[C@@H]1O (some centres unmarked) [GlcNAc] | The GlcNAc ring is vertically inserted into a slit between the indole ring of W760 and the pyrrolidine ring |  |
| Saccharomyces cerevisiae chitin synthase 1 (Chs1), wild type, C-terminal triple FLAG (enzyme, S. cerevisiae, Chitin synthase 1 (Chs1), S. cerevisiae, UniProt P08004; the first 374 residues (except 245-271) are not seen in the maps; the purified sample was partly digested in the N-terminal region by endogenous protease (a smaller species lacks about the N-terminal 150 residues); also called ScChs1; scChs1) MSDQNNRSRNEYHSNRKNEPSYELQNAHSGLFHSSNEELTNRNQRYTNQNASMGSFTPVQSLQFPEQSQQTNMLYNGDDGNNNTINDNERDIYGGFVNHHRQRPPPATAEYNDVFNTNSQQLPSEHQYNNVPSYPLPSINVIQTTPELIHNGSQTMATPIERPFFNENDYYYNNRNSRTSPSIASSSDGYADQEARPILEQPNNNMNSGNIPQYHDQPFGYNNGYHGLQAKDYYDDPEGGYIDQRGDDYQINSYLGRNGEMVDPYDYENSLRHMTPMERREYLHDDSRPVNDGKEELDSVKSGYSHRDLGEYDKDDFSRDDEYDDLNTIDKLQFQANGVPASSSVSSIGSKESDIIVSNDNLTANRALKRSGTEIRKFKLWNGNFVFDSPISKTLLDQYATTTENANTLPNEFKFMRYQAVTCEPNQLAEKNFTVRQLKYLTPRETELMLVVTMYNEDHILLGRTLKGIMDNVKYMVKKKNSSTWGPDAWKKIVVCIISDGRSKINERSLALLSSLGCYQDGFAKDEINEKKVAMHVYEHTTMINITNISESEVSLECNQGTVPIQLLFCLKEQNQKKINSHRWAFEGFAELLRPNIVTLLDAGTMPGKDSIYQLWREFRNPNVGGACGEIRTDLGKRFVKLLNPLVASQNFEYKMSNILDKTTESNFGFITVLPGAFSAYRFEAVRGQPLQKYFYGEIMENEGFHFFSSNMYLAEDRILCFEVVTKKNCNWILKYCRSSYASTDVPERVPEFILQRRRWLNGSFFASVYSFCHFYRVWSSGHNIGRKLLLTVEFFYLFFNTLISWFSLSSFFLVFRILTVSIALAYHSAFNVLSVIFLWLYGICTLSTFILSLGNKPKSTEKFYVLTCVIFAVMMIYMIFCSIFMSVKSFQNILKNDTISFEGLITTEAFRDIVISLGSTYCLYLISSIIYLQPWHMLTSFIQYILLSPSYINVLNIYAFCNVHDLSWGTKGAMANPLGKINTTEDGTFKMEVLVSSSEIQANYDKYLKVLNDFDPKSESRPTEPSYDEKKTGYYANVRSLVIIFWVITNFIIVAVVLETGGIADYIAMKSISTDDTLETAKKAEIPLMTSKASIYFNVILWLVALSALIRFIGCSIYMIVRFFKKVTFR |  | 2 |
